One experiment relates to bacterial persisters. Description: fluorescence and SEM of bacterial persisters treated with aztreonam/avibactam with or without 5-NIdR (FIG. 5). It is filed as cell-based. The text has this:
First, the artificial nucleoside inhibits TLS activity in response to ROS generated by β-lactams, and this serves to enhance the cytotoxicity of this class of antibiotics. […] These two features represent a novel approach to attack drug-resistant bacteria.

Experiment [1] concerns Pseudomonas aeruginosa strains (VIM-2, SPM-1, IMP-1, OXA-50, ATCC 27853, PA01). Description: checkerboard MIC experiments, 5-NIdR combined with aztreonam/avibactam. The class given is cell-based. On the procedure:
5-NIdR alone was not active, displaying individual MICs>512 μg/ml against these strains.

`O=[N+]([O-])c1ccc2c(ccn2[C@H]2C[C@H](O)[C@@H](CO)O2)c1` [5-NIdR, 5-nitro-indolyl-2′-deoxynucleoside]: the “influence on formation of persisters induced by antibiotic treatment” value in the experiment on bacterial persisters (5-NIdR added to aztreonam/avibactam, panel d) is recorded as “does not appear to influence formation of persisters”. Moreover, in the experiment on bacterial persisters (5-NIdR combined with aztreonam/avibactam), the “viability of filamentous persisters” value is recorded as “adversely affects the viability of filamentous persisters”. The “morphology of persisters (fluorescence and SEM)” value with bacterial persisters (5-NIdR combined with aztreonam/avibactam, panels d, e) is “formation of “ghost” apoptotic saccules which represent non-viable persisters that do not undergo reversion”. The “activity of 5-NIdR alone” value in experiment [1] (5-NIdR alone, against these strains) was “not active”. Moreover, the “fold reduction in the MICs for aztreonam/avibactam” value in experiment [1] (5-NIdR combined with aztreonam/avibactam, 5-NIdR concentrations as low as 0.5 μg/ml, all strains listed) was > 10 -fold. Moreover, in experiment [1] (Pseudomonas aeruginosa, ATCC27853, read-out: minimal inhibitory concentrations (MICs)), the MIC is greater than 512 µg/mL. The “lowest 5-NIdR concentration required to achieve a >10-fold reduction in the MICs for aztreonam/avibactam” value in experiment [1] (combined with β-lactams (aztreonam/avibactam), all Pseudomonas aeruginosa strains listed) was 0.5 μg/ml. For the same compound, the “cell-killing effects in checkerboard analysis” value in experiment [1] (combining 5-NIdR with aztreonam/avibactam in drug-resistant bacteria (FIG. 3A-F)) is “synergistic cell-killing effects”. The “inhibitory activity in checkerboard experiments” value in experiment [1] (variable concentrations of 5-NIdR combined with variable concentrations of aztreonam/avibactam) is “excellent inhibitory activity”.
